# Measurements published in patent publication US20060018825A1, “Probe for diseases with amyloid accumulation, amyloid-staining agent, remedy and preventive for diseases with amyloid accumulation and diagnostic probe and staining agent for neurofibrillary change” (BF RESEARCH INSTITUTE, INC., priority 2003, published 2006).
# “Also recorded” adds a separate entry of the source.
# Tests used:
# [1] = tested on: senile plaques and diffuse plaques (amyloid β-protein) in brain sections; test: Staining of senile plaques and diffuse plaques in brain sections of an Alzheimer's disease patient; set-up: species or system human; conditions: for staining properties in sections of the brain of a patient with Alzheimer's disease (senile plaques): 100 μM compound in 50% ethanol, compared with thioflavin S or anti-Aβ antibody 6F/3D on adjacent section; for staining of diffuse plaques in sections of the brain of a patient with Alzheimer's disease: 100 μM compound, diffuse plaques stained with anti-Aβ antibody 6F/3D on adjacent section
# Text: (§1) The following explanation is made about testing of staining properties of the compounds of the present invention on brain sections of an Alzheimer's disease patient.
# (§2) (1) Temporal lobe or hippocampus specimens of the brain of a patient who had been definitely diagnosed pathologically as Alzheimer's disease and of a normal aged individual were used. These specimens were provided from Fukushimura Hospital, our joint research facility, with the consent to their use for research purpose received from the bereaved family of the patient (BF Research Laboratories Institutional Ethics Board Permission No. RS-99-02).
# (§3) (2) The brain tissues embedded in paraffin were sliced 6 or 8 μm thick, extended on slides, and dried. The paraffin-embedded brain sections were deparaffined by washing sequentially with xylene (10 minutes, twice), 100% ethanol (15 minutes, twice), 95% ethanol (15 minutes, twice), and a stream of water (10 minutes).
# (§4) (3) Pre-treatment for staining with compounds of the present invention involved treating the sections for eliminating self-fluorescence due to lipofuscin. First, the deparaffined sections were immersed into a 10% formalin solution for 60 minutes and washed with PBS for 5 minutes, followed by immersion into a 0.25% solution of KMnO4 for 90 minutes. After washing twice with PBS for 2 minutes each, the sections were immersed into a solution of 0.1% K2S2O5/oxalic acid for about 30 seconds each, and then washed three times with PBS for 2 minutes each.
# (§5) (4) About 150 μl of a 100 μM solution of a compound of the present invention dissolved in 50% ethanol was added dropwise onto the sections and allowed the reaction to be carried out for 10 minutes. The sections were dipped into tap water five times, and then 50% ethanol three to five times, followed by immediate classification. After that, the sections were immersed into PBS for 60 minutes, enclosed with Fluor Save Reagent (Calbiochem), and examined under a fluorescent microscope (Nikon, Eclips E800) . Pictures were taken using a digital camera (Plaroid PDMCII).
# Immunostaining was carried out as follows.
# (a) Procedures for Immunostaining Amyloid β-Protein:
# (1) After the sections were deparaffined, the sections were washed twice in distilled water for 2 minutes each, and tissues were marked with an Immunopen. About 150 μl of formic acid was added dropwise and allowed to stand at room temperature for 5 minutes. The sections were washed with tap water for 5 minutes and immersed into cold PBS-Tween 20 for 2 minutes, and then about 150 μl of a 0.05% trypsin solution was added dropwise and allowed the reaction to be carried out at 37° C. for 15 minutes.
# (2) In an ice bath, the sections were washed twice with cold PBS-Tween 20 for 5 minutes each, and two drops of blocking serum were added and allowed the reaction to be carried out at 37° C. for 15 minutes. Excess water was removed, and about 150 μl of 6F/3D, an antibody specific to amyloid β-protein (DAKO; diluted 1:50) was added dropwise and allowed the reaction to be carried out at 37° C. for 1 hour.
# (3) Further, after washing five times with cold PBS-Tween 20 for 2 minutes each, two drops of a solution of goat anti-mouse IgG (H+L) conjugated to biotin were added and allowed the reaction to be carried out at 37° C. for 1 hour. After that, the sections were washed three times with cold PBS-Tween 20 for 2 minutes each, and two drops of ABS solution (a streptavidin-biotin-peroxidase complex solution) were added and allowed to stand for 30 minutes. The sections were again washed three times with cold PBS-Tween 20 for 2 minutes each, and about 150 μl of DAB solution (prepared by dissolving 10 mg of DAB in 20 ml of 0.05 mol/l Tris-HCl buffer and adding 100 μl of 3% hydrogen peroxide immediately before use) were added and allowed the color to be developed sufficiently. Then, the sections were washed with distilled water for 1 minute to stop the reaction, enclosed, and examined under a microscope.
# [2] = Acute toxicity testing by intravenous administration; type: in vivo; conditions: male Crj:CD1 mice, observed up to 7 days
# Description: (A) Testing of Acute Toxicity
# Acute toxicity of the inventive compounds was determined employing mice by intravenous administration. Male Crj:CD1 mice were used and divided into groups of 4 mice, with an average weight of each group of 31-32 g. […] Up to 7 days after administration, observations were made.
# [3] = Blood-brain barrier permeability after intravenous administration; type: in vivo; conditions: Slc:ICR, mouse, not told; mice, two minutes after intravenous administration; read-out: content in Brain (blood-brain barrier permeability)
# Text: (B) Testing of Blood-Brain Barrier Permeability
# [4] = tested on: neurofibrillary tangles (tau protein) in brain sections; test: Neurofibrillary tangles staining in brain sections of an Alzheimer's disease patient; set-up: species or system human; conditions: for specificity of staining to tau protein / neurofibrillary tangles: compared with thioflavin S (FIG. 17)
# Text: as §1, §2, §3, §4, §5
# (b) Procedures for Immunostaining Neurofibrillary Tangles:
# (1) Immunostaining of neurofibrillary tangles was carried out as follows. After the sections were deparaffined, the sections were washed twice with distilled water for 2 minutes each, tissues were marked with an Immunopen. About 150 μl of 3% hydrogen peroxide (diluted in methanol) was added dropwise and allowed to stand at room temperature for 10 minutes.
# (2) The sections were washed twice with cold PBS-Tween 20 for 5 minutes each, and two drops of blocking serum were added and allowed the reaction to be carried out at 37° C. for 30 minutes. Excess water was removed, and two drops of pSer422, an antibody specific to phosphorylated tau (Wako Phosphorylated Tau Immunohistostain Kit 299-57301) and allowed the reaction to be carried out overnight at 4° C.
# (3) On the next day, the sections were washed five times with cold PBS-Tween 20 for 2 minutes each, and two drops of a solution of goat anti-rabbit IgG conjugated to biotin were added and allowed the reaction to be carried out at 37° C. for 1 hour. After that, the sections were washed three times with cold PBS-Tween 20 for 2 minutes each, and two drops of ABS solution (a streptavidin-biotin-peroxidase complex solution) were added and allowed to stand for 30 minutes.
# (4) The sections were again washed three times with cold PBS-Tween 20 for 2 minutes each, and about 150 μl of DAB solution (prepared by dissolving 10 mg of DAB in 20 ml of 0.05 mol/l Tris-HCl buffer and adding 100 μl of 3% hydrogen peroxide immediately before use) were added and allowed the color to be developed sufficiently. Then, the sections were washed with distilled water for 1 minute to stop the reaction, enclosed, and examined under a microscope. The blocking serum, the solution of goat anti-rabbit IgG conjugated to biotin, and the ABC solution used were those contained in a Phosphorylated Tau Immunohistostain Kit (Wako 299-57301).
# [5] = Clearance from the brain; conditions: in vivo
Compound,staining properties in sections of the brain of a patient with Alzheimer's disease (senile plaques) [1],specificity of staining to tau protein / neurofibrillary tangles [4],other results
"CNc1ccc(/C=C/C=C/c2nc3ccccc3o2)cc1 [BF-185, 2-[[4-(4-methylamino)phenyl]-1,3-butadienyl)benzoxazole]",mainly stains senile plaques,–,staining of diffuse plaques in sections of the brain of a patient with Alzheimer's disease [1]: stains; also recorded: display affinity also for diffuse plaques and provide their clear staining; Maximum Tolerated Dose [2]: ≧10 mg/kg; tissue uptake at 2 min [3]: 3.9 %ID/g
"CNc1ccc(/C=C/C=C/c2nc3ccccc3s2)cc1 [BF-187, 2-[[4-(4-methylamino)phenyl]-1,3-butadienyl)benzothiazole]",stains senile plaques,–,Maximum Tolerated Dose [2]: ≧10 mg/kg; tissue uptake at 2 min [3]: 3.6 %ID/g
"CNc1ccc(/C=C/C=C/c2nc3ccccc3[nH]2)cc1 [BF-188, 2-[[4-(4-methylamino)phenyl]1,3-butadienyl]benzoimidazole]",stains senile plaques,–,tissue uptake at 2 min [3]: 4.8 %ID/g
"CNc1ccc(/C=C/C=C/C=C/c2ccc3ccccc3n2)cc1 [BF-189, 1-(4-methylaminophenyl)-6-(2-quinolyl)-1,3,5-hexatrien]",stains senile plaques,–,–
"CN(C)c1ncc(/C=C/c2nc3ccccc3s2)s1 [BF-196, 2-[2-(2-dimethylaminothiazol-5-yl)ethenyl]benzothiazole]",mainly stains senile plaques,–,–
"CN(C)c1ncc(/C=C/c2nc3ccccc3o2)s1 [BF-197, 2-[2-(2-dimethylaminothiazol-5-yl)ethenyl]benzoxazole]",mainly stains senile plaques,–,–
Nc1ccc(/C=C/C=C/c2nc3ccc(O)cc3o2)c(O)c1 [BF-201],stains senile plaques,–,"MTD at 7 days ([2]; mouse, in vivo, read-out: Maximum Tolerated Dose): ≥ 10 mg/kg"
"Cc1nc(/C=C/c2cnc(N(C)C)s2)oc1C [BF-214, 2-(dimethylamino)-5-[2-(4,5-dimethyloxazol-2-yl)ethenyl]thiazole]",stains senile plaques,–,–
"CN(C)c1ncc(-c2ccc3ccccc3n2)o1 [BF-221, 2-(2-dimethylaminooxazol-5-yl)quinoline]",–,high specificity to tau protein,staining of phosphorylated tau protein recognized by antibody pSer422 ([4]; adjacent section immunostained with pSer422 (FIG. 18)): stained phosphorylated tau protein
"CN(C)c1ncc(-c2nc3ccccc3o2)s1 [BF-225, 2-(2-dimethylaminothiazol-5-yl)benzoxazole]",–,–,Maximum Tolerated Dose [2]: ≧10 mg/kg
"CN(C)c1ncc(/C=C/c2nc3ccc(OCCF)cc3o2)s1 [BF-227, 2-[2-(2-dimethylaminothiazol-5-yl)ethenyl]-6-(2-fluoroethyloxy)benzoxazole]",mainly stains senile plaques,–,staining of diffuse plaques in sections of the brain of a patient with Alzheimer's disease [1]: stains; also recorded: display affinity also for diffuse plaques and provide their clear staining; clearance from the brain [5]: rapid clearance from the brain
"Nc1ncc(-c2ccc3ccccc3n2)o1 [BF-239, 2-(2-aminooxazol-5-yl)quinoline]",–,high selectivity to neurofibrillary tangles,–
"Nc1ncc(-c2ccc3ccccc3n2)s1 [BF-240, 2-(2-aminothiazol-5-yl)quinoline]",–,high selectivity to neurofibrillary tangles,–
Nc1cnc(-c2ccc3ccccc3n2)o1 [BF-255],–,high selectivity to neurofibrillary tangles,–
"O=C(O)c1cc(/C=C/c2ccc(/C=C/c3ccc(O)c(C(=O)O)c3)c(Br)c2)ccc1O [BSB, reference compound]",stains both senile plaques and neurofibrillary tangles,–,–
thioflavin S [reference compound],stains both senile plaques and neurofibrillary tangles,provided enough staining of proteins other than tau protein,–
